The values that follow come from patent US4393055A, “Hydroxyalkyl ether derivatives of rutin poly(H-)sulfate and method of use” (American Cyanamid Company, priority 1982, dated 1983).

Several values for one entry are separate records, joined by “and”; a condition that tells them apart may be missing. Equal entries are not always repeated. Structures can show the parent of a compound that is named as a salt.

In experiment [1] the target is activated human C1 (Homo sapiens, UniProt P09871). As to the kind of experiment: Test Code 026 (C1 inhibitor). In kind it is biochemical. The note with it: twofold serial dilutions; higher well number indicates higher activity. On the procedure: (§1) An active inhibitor protects C2 from C1 and C4; (ii) Cap 50 Test--Here, appropriate amounts of the test compound are added to a pool of guinea pig serum in vitro, after which the undiluted serum capillary tube assay referred to above is run. The concentration of compound inhibiting 50% is reported; and (iii) Guinea Pig Intraperitoneal Test (GPIP)--Guinea pigs weighing about 300 g. are dosed intraperitoneally (i.p.) with 200 mg./kg. of the test compound dissolved in saline and adjusted to pH 7-8. Approximately 0.4 ml. blood samples, taken by orbital sinus puncture 30 minutes and one hour after injections, are collected directly into centrifuge tubes; 5 ml. blood samples, taken by decapitation 2 hours after injection are collected directly into beakers. The samples are allowed to clot, centrifuged, and the resultant sera are assayed for complement activity using the capillary complement assay. Percent inhibition are calculated by comparison with simultaneous controls.

The subject of experiment [2] is complement activity of sera. As to the kind of experiment: Guinea Pig Intraperitoneal Test (GPIP). In kind it is in vivo. To be noted: 200 mg./kg. i.p. On the procedure: as §1, with “[…],” for “taken by orbital sinus puncture 30 minutes and one hour after injections,”, “taken by decapitation 2 hours after injection are collected directly into” left out
Experiment [3] concerns total hemolytic complement activity. To be noted: in vitro and in vivo; judged by reduction in total hemolytic complement activity; cited from earlier work.

Chain of activated human C1 (P09871 16-437 limits assumed): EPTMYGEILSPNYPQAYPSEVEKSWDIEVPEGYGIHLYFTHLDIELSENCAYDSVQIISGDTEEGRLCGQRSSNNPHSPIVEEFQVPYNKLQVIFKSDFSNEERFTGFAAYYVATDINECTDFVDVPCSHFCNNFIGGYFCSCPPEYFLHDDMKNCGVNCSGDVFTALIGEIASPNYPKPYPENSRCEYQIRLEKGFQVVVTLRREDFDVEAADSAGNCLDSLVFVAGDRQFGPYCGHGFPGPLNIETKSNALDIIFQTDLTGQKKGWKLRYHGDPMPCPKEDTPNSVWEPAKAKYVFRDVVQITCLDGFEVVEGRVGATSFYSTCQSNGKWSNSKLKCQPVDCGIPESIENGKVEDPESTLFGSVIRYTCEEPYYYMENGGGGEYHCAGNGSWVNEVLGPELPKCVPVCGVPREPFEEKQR
Chain of activated human C1 (P09871 438-688 limits assumed): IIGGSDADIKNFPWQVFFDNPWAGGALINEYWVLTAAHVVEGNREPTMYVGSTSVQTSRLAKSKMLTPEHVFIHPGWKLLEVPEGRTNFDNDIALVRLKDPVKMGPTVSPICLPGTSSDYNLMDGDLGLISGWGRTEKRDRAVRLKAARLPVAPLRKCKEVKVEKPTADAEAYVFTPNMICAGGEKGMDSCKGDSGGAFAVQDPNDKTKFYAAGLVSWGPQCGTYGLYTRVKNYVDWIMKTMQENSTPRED
Chain of activated human C1 (P00736 18-463 partner limits assumed): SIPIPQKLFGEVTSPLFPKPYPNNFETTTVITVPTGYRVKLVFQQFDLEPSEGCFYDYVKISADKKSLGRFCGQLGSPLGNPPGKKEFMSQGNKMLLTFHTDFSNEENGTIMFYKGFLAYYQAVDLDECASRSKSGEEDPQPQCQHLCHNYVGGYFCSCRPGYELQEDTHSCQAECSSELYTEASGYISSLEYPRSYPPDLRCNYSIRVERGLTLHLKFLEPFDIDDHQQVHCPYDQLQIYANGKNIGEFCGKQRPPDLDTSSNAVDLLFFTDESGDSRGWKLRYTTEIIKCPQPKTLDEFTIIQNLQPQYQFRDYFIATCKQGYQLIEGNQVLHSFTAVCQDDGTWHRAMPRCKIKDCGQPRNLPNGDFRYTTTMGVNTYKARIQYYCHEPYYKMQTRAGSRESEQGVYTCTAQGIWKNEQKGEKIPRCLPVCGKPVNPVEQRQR
Chain of activated human C1 (P00736 464-705 partner limits assumed): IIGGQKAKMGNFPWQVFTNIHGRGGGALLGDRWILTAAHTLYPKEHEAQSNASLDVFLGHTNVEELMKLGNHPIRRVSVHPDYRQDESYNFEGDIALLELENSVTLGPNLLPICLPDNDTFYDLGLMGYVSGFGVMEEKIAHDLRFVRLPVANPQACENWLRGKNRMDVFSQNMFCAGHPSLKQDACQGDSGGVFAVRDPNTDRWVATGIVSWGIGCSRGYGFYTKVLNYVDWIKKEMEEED

As to `C[C@@H]1O[C@@H](OC[C@H]2O[C@@H](Oc3c(-c4ccc(OCCOS(=O)(=O)O)c(OCCOS(=O)(=O)O)c4)oc4cc(OCCOS(=O)(=O)O)cc(OS(=O)(=O)O)c4c3=O)[C@H](OS(=O)(=O)O)[C@@H](OS(=O)(=O)O)[C@@H]2OS(=O)(=O)O)[C@H](OS(=O)(=O)O)[C@H](OS(=O)(=O)O)[C@H]1OS(=O)(=O)O` [3',4',7-Tris(2-hydroxyethyl)rutin, deca(H-sulfate)sodium salt], in experiment [1], the “In vitro Activity 026 (activity in wells, serial dilution assay)” value is 7-10 wells. Further, in experiment [2] (Time (hours) 6), the “In vivo Activity (Guinea Pig) Intraperitoneal % Inhibition” value was 48% and 82%.

`C[C@@H]1O[C@@H](OC[C@H]2O[C@@H](Oc3c(-c4ccc(OS(=O)(=O)O)c(OS(=O)(=O)O)c4)oc4cc(OCCOS(=O)(=O)O)cc(OS(=O)(=O)O)c4c3=O)[C@H](OS(=O)(=O)O)[C@@H](OS(=O)(=O)O)[C@@H]2OS(=O)(=O)O)[C@H](OS(=O)(=O)O)[C@H](OS(=O)(=O)O)[C@H]1OS(=O)(=O)O` [7-(2-hydroxyethyl)rutin, deca(H-sulfate)sodium salt]: the “In vitro Activity 026 (activity in wells, serial dilution assay)” value in experiment [1] is listed as 6-12 wells. In addition, the “In vivo Activity (Guinea Pig) Intraperitoneal % Inhibition” value in experiment [2] (Time (hours) 4) is on record as 88%; in experiment [2] (Time (hours) 6) it was 71%; in experiment [2] (Time (hours) 24), 20%.

For the molecule `C[C@@H]1O[C@@H](OC[C@H]2O[C@@H](Oc3c(-c4ccc(OS(=O)(=O)O)c(OS(=O)(=O)O)c4)oc4cc(OCCOS(=O)(=O)O)cc(O)c4c3=O)[C@H](OS(=O)(=O)O)[C@@H](OS(=O)(=O)O)[C@@H]2OS(=O)(=O)O)[C@H](OS(=O)(=O)O)[C@H](OS(=O)(=O)O)[C@H]1OS(=O)(=O)O` [7-(2-hydroxyethyl)rutin, nona(H-sulfate)sodium salt], in experiment [1], the “In vitro Activity 026 (activity in wells, serial dilution assay)” value was 9-12 wells. The “In vivo Activity (Guinea Pig) Intraperitoneal % Inhibition” value in experiment [2] (Time (hours) 4) was 86%; in experiment [2] (Time (hours) 6), 71%; in experiment [2] (Time (hours) 24), 35%.

Consider pentosanpolysulfoester, for which, in experiment [3], the “anticomplementary activity on human serum” value was “has an anticomplementary activity on human serum, both in vitro and in vivo”.
